Assay results reported in US20160304552A1, “MODIFIED NUCLEIC ACID MOLECULES AND USES THEREOF” (MODERNA THERAPEUTICS, INC., priority 2013, published 2016).

Legend:
T7 RNA polymerase = T7 RNA polymerase (Escherichia phage T7, UniProt P00573); test: In vitro transcription yields of modified mRNA; type: biochemical; conditions: for EPO In Vitro Transcription yield: EPO mRNA made with the modified NTP(s); for GCSF In Vitro Transcription yield: GCSF mRNA made with the modified NTP(s); for Luc In Vitro Transcription yield: Luciferase mRNA made with the modified NTP(s)
Sequence of T7 RNA polymerase (P00573 whole entry): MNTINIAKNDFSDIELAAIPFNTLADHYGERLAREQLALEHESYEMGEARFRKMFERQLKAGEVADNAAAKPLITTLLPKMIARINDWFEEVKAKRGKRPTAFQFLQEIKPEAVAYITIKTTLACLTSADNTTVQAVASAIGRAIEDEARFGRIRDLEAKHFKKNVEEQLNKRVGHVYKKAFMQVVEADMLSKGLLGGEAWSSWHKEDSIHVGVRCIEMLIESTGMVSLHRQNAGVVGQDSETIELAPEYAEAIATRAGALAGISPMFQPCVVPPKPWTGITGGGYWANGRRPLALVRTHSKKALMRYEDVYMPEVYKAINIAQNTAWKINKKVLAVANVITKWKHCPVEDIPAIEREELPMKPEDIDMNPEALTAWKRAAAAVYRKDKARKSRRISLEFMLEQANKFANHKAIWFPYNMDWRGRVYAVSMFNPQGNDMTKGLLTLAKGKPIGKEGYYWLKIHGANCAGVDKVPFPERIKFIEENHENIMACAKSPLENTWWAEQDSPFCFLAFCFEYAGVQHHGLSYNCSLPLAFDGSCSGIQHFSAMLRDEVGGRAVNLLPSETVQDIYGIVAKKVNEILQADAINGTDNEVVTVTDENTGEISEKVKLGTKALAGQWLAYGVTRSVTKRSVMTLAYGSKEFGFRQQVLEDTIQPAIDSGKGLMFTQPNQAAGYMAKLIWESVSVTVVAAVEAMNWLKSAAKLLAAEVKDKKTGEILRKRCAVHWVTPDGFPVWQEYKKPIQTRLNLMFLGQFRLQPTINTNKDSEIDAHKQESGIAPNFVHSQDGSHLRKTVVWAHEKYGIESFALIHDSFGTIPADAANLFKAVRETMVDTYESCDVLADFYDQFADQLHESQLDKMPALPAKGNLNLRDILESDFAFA

[1] = tested on: Rabbit Reticulocyte Lysate; test: In vitro translation screen, human GCSF modRNA (GCSF ELISA); type: biochemical; conditions: Table 20; 250 ng modRNA, 45 min, 30° C.
Description: (§1) The in vitro translation assay was done with the Rabbit Reticulocyte Lysate (nuclease-treated) kit (Promega, Madison, Wis.; Cat. #L4960) according to the manufacturer's instructions. The reaction buffer was a mixture of equal amounts of the amino acid stock solutions devoid of Leucine or Methionine provided in the kit.
(§2) The modRNAs of firefly Luciferase, human GCSF and human EPO, harboring chemical modifications on either the bases or the ribose units, were diluted in sterile nuclease-free water to a final concentration of 250 ng in 2.5 ul (Stock 100 ng/μl). The modRNA (250 ng) was added to the mixture of freshly prepared Rabbit Reticulocyte Lysate and reaction buffer.
(§3) Aliquots of the in vitro translation reaction containing human GCSF modRNA or human EPO mRNA were transferred and analyzed with a human GCSF-specific or EPO ELISA kit (both from R&D Systems, Minneapolis, Minn.; Cat. #s SCS50, DEP00 respectively) according to the manufacturer instructions. All samples were diluted until the determined values were within the linear range of the human GCSF or EPO ELISA standard curve.

[2] = tested on: Rabbit Reticulocyte Lysate; test: In vitro translation screen, human EPO modRNA (EPO ELISA); type: biochemical; conditions: Table 20; 250 ng modRNA, 45 min, 30° C.
Description: as §1, §2, §3

HeLa cells [3] = test: Transfection in HeLa cells, human EPO modRNA (EPO ELISA of supernatant); type: cell-based; conditions: Table 22, 18 h to 22 h
HeLa cells [4] = test: Transfection in HeLa cells, Luciferase modRNA (luciferase assay, relative light units); type: cell-based, human; conditions: Table 22, 83 ng modRNA, Lipofectamine 2000, 18 h to 22 h
Description: (§4) The day before transfection, 20.000 HeLa cells (ATCC no. CCL-2; Manassas, Va.) were harvested by treatment with Trypsin-EDTA solution (LifeTechnologies, Grand Island, N.Y.) and seeded in a total volume of 100 ul EMEM medium (supplemented with 10% FCS and 1× Glutamax) per well in a 96-well cell culture plate (Corning, Manassas, Va.). The cells were grown at 37° C. in 5% CO2 atmosphere overnight. Next day, 83 ng of Luciferase modRNA or 250 ng of human GCSF modRNA, harboring chemical modifications on the bases or the ribose units, were diluted in 10 ul final volume of OPTI-MEM (LifeTechnologies, Grand Island, N.Y.). Lipofectamine 2000 (LifeTechnologies, Grand Island, N.Y.) was used as transfection reagent and 0.2 μl were diluted in 10 ul final volume of OPTI-MEM. After 5 min incubation at room temperature, both solutions were combined and incubated additional 15 min at room temperature. Then the 20 μl were added to the 100 ul cell culture medium containing the HeLa cells. The plates were then incubated as described before.
After 18 h to 22 h incubation, cells expressing luciferase were lysed with 100 μl Passive Lysis Buffer (Promega, Madison, Wis.) according to manufacturer instructions. Aliquots of the lysates were transferred to white opaque polystyrene 96-well plates (Corning, Manassas, Va.) and combined with 100 ul complete luciferase assay solution (Promega, Madison, Wis.). The lysate volumes were adjusted or diluted until no more than 2 mio relative light units per well were detected for the strongest signal producing samples. […] The plate reader was a BioTek Synergy H1 (BioTek, Winooski, Vt.).

[5] = tested on: Rabbit Reticulocyte Lysate; test: In vitro translation screen, firefly Luciferase modRNA (luciferase assay, relative light units); type: biochemical; conditions: Table 20; 250 ng modRNA, 45 min, 30° C.
Description: as §1, §2
After 45 min incubation, the reaction was stopped by placing the plate on ice. Aliquots of the in vitro translation reaction containing luciferase modRNA were transferred to white opaque polystyrene 96-well plates (Corning, Manassas, Va.; Cat. # CLS3912) and combined with 100 ul complete luciferase assay solution (Promega, Madison, Wis.). The volumes of the in vitro translation reactions were adjusted or diluted until no more than 2 million relative light units per well were detected for the strongest signal producing samples. […] The plate reader was a BioTek Synergy H1 (BioTek, Winooski, Vt.).

HeLa cells [6] = test: Transfection in HeLa cells, human GCSF modRNA (GCSF ELISA of supernatant); type: cell-based; conditions: Table 22, 250 ng modRNA, 18 h to 22 h
Description: as §4
After 18 h to 22 h incubation, cell culture supernatants of cells expressing human GCSF or human EPO were collected and centrifuged at 10.000 rcf for 2 min. The cleared supernatants were transferred and analyzed with a human GCSF-specific or EPO ELISA kit (both from R&D Systems, Minneapolis, Minn.; Cat. #s SCS50, DEP00, respectively) according to the manufacturer instructions. All samples were diluted until the determined values were within the linear range of the human GCSF or EPO ELISA standard curve.

human PBMC = test: PBMC cytokine assay, interferon-alpha production (IFN-alpha multi-subtype ELISA); type: cell-based
Description: 50 mL of human blood from three donors was received from Research Blood Components (Brighton, Mass.) in sodium heparin tubes. […] The tubes were centrifuged at 2000 rpm for 30 minutes with low acceleration and braking (Thermo, Waltham, Mass., 75004506). The tubes were removed and the buffy coat PBMC layers were gently transferred to a fresh 50 mL conical and washed with DPBS. The tubes were centrifuged at 1450 rpm for 10 minutes. The supernatant was aspirated and the PBMC pellets were resuspended and washed in 50 mL of DPBS. The tubes were centrifuged at 1450 rpm for 10 minutes. […] The cell suspensions were adjusted to a concentration of 3.0×10^6 cells/mL live cells. […] Within 30 minutes, transfection mixtures were added to each well at a volume of 50 μL per well. […] The transfection mixtures were then transferred to each of the human PBMC plates at 50 μL per well (6 wells per mRNA sample). The plates were then incubated at 37° C. […] In order to harvest the supernatant, plates were centrifuged at 1450 rpm for 5 min in a swinging plate rotor. The supernatant of 6 wells transfected with the same mRNA was carefully harvested and pooled in a single well of a fresh 96-well plate. Supernatants were either frozen or used fresh until ELISA analysis was done. The ability of unmodified and modified mRNA to trigger innate immune recognition as measured by interferon-alpha production.

| Compound | EPO In Vitro Transcription yield (T7 RNA polymerase) [mg] | GCSF In Vitro Transcription yield (T7 RNA polymerase) [mg] | Luc In Vitro Transcription yield (T7 RNA polymerase) [mg] | GCSF Expression [1] [pg/mL] | Epo Expression [2] [pg/mL] | Epo Expression (HeLa cells [3]) [pg/mL] | Luc Expression (RLUs) (HeLa cells [4]) | Luc Expression (RLUs) [5] [RLUs] | GCSF Expression (HeLa cells [6]) [pg/mL] | interferon-alpha concentration in PBMC supernatant (human PBMC; Luc mRNA, 1st value in cell) [pg/mL] | interferon-alpha concentration in PBMC supernatant (human PBMC; Luc mRNA, 2nd value in cell) [pg/mL] | interferon-alpha concentration in PBMC supernatant (human PBMC; Luc mRNA, 3rd value in cell) [pg/mL] | interferon-alpha concentration in PBMC supernatant (human PBMC; hEPO mRNA, 1st value in cell) [pg/mL] | interferon-alpha concentration in PBMC supernatant (human PBMC; hEPO mRNA, 2nd value in cell) [pg/mL] | interferon-alpha concentration in PBMC supernatant (human PBMC; hEPO mRNA, 3rd value in cell) [pg/mL] | interferon-alpha concentration in PBMC supernatant (human PBMC; hGCSF mRNA, 1st value in cell) [pg/mL] | interferon-alpha concentration in PBMC supernatant (human PBMC; hGCSF mRNA, 2nd value in cell) [pg/mL] | interferon-alpha concentration in PBMC supernatant (human PBMC; hGCSF mRNA, 3rd value in cell) [pg/mL] | also measured |
| --- | --- | --- | --- | --- | --- | --- | --- | --- | --- | --- | --- | --- | --- | --- | --- | --- | --- | --- | --- |
| Cn1cc([C@@H]2O[C@H](COP(O)(=S)OP(=O)(O)OP(=O)(O)O)C(O)C2O)c(=O)[nH]c1=O (stereo in doubt) [00902015002 (195), 1-Methyl-pseudo-U-alpha-thio-TP] | 0.7679 | 0.6582 | 0.6011 | 4244 | 1694 | 348600 | 4900 | 1201 | 372100 |  |  |  |  |  |  |  |  |  | Luc (3 Donor samples) (human PBMC; Luc mRNA, 1st value in cell): 180 pg/mL; Luc (3 Donor samples) (human PBMC; Luc mRNA, 2nd value in cell): 500 pg/mL; Luc (3 Donor samples) (human PBMC; Luc mRNA, 3rd value in cell): 180 pg/mL; hEPO (3 Donor samples) (human PBMC; hEPO mRNA, 1st value in cell): -290 pg/mL; hEPO (3 Donor samples) (human PBMC; hEPO mRNA, 2nd value in cell): 512.5 pg/mL; hEPO (3 Donor samples) (human PBMC; hEPO mRNA, 3rd value in cell): 475 pg/mL; hGCSF (3 Donor samples) (human PBMC; hGCSF mRNA, 1st value in cell): 425 pg/mL; hGCSF (3 Donor samples) (human PBMC; hGCSF mRNA, 2nd value in cell): 916.66 pg/mL; hGCSF (3 Donor samples) (human PBMC; hGCSF mRNA, 3rd value in cell): 1250 pg/mL |
| Nc1nc(=O)n([C@@H]2O[C@H](COP(=O)(O)OP(=O)(O)OP(=O)(O)O)C(O)C2O)cc1CO (stereo in doubt) [00901014005 (350), 5-Hydroxymethyl-CTP] | 0.7778 | 0.6391 | 0.4073 | 26600 | 9425 | 440300 | 22160 | 154000 | 1151000 | 7130 | 3680 | 8990 | 4960 | 3100 | 2412.5 | 6575 | 5800 | 8180 |  |
| Nc1nc(=O)n([C@@H]2O[C@H](COP(=O)(O)OP(=O)(O)OP(=O)(O)O)C(O)C2O)cc1Br (stereo in doubt) [03601014008 (379), 5-Bromo-CTP] | 0.3454 | 0.3685 | 0.5161 | 13510 | 8581 | 3263000 | 125700 | 194900 | 1003000 | 5470 | 1080 | 5420 | 2300 | 487.5 | 500 | 2808.33 | 2266.67 | 1650 |  |
